Laboratory results published in patent EP1362589A1, “The use of R(+)-alpha-(2,3-dimethoxyphenyl)-1-(2-(4-fluorophenyl)ethyl)-4- piperidinemethanol for the treatment of sleep disorders” (Aventis Pharmaceuticals Inc., priority 1998, dated 2000).

How the values were obtained:
Assay type in all cases: in vivo
healthy subjects [1] = test: Single oral dose in healthy subjects, reported sedation (Example 4A); details: orally
Procedure: Forty percent of the subjects receiving the 20mg dose (2 out of 5) and sixty percent of the subjects receiving the 10mg dose (3 out of 5) experienced mild to moderate sedation. […]

[2] = tested on: patients diagnosed with schizophrenia; test: Oral twice-daily dosing in patients with schizophrenia, reported insomnia and somnolence (Example 4B); details: orally
Procedure: Forty percent of the subjects receiving the 20mg dose (2 out of 5) and sixty percent of the subjects receiving the 10mg dose (3 out of 5) experienced mild to moderate sedation. […] The following data were reported.

healthy subjects [3] = test: Oral doses in healthy subjects, reported drowsiness (Example 4C); details: for Drowsiness, % of subjects / Drowsiness, n subjects: group n=4
Procedure: The following data were reported. […] Only the group receiving the 72mg dose reported drowsiness ([…]).

healthy subjects [4] = test: Oral doses 3-72 mg in healthy subjects, reported drowsiness (Example 4D); details: 72mg dose (n=4); only this group among 3, 9, 18, 36 and 72mg reported drowsiness
Procedure: Only the group receiving the 72mg dose reported drowsiness (n=3).

[5] = tested on: newborn Sprague Dawley rats; test: Depression of genioglossal EMG induced by L-Tryptophan and Pargyline
Procedure: (§1) Experiments were carried out on newborn Sprague Dawley rats from Iffa Credo breeding centre. The animals were anaesthetised by intraperitoneal injection of low doses of sodium pentobarbitone (7-10mg/kg), kept lying (dorsal cubitus) on a warming blanket and were spontaneously ventilating.
(§2) The EMG activity of the genioglossal muscles and the diaphragm were recorded with fine insulated wires (bipolar recordings) inserted within the muscles, filtered (100-3,000 Hz), amplified (x 5-10,000) and integrated (time constant 50 ms). The rib cage movements were recorded via a captor gently touching the lower ribs and/or the abdominal wall. The air flow changes resulting from the respiratory chest movements were recorded via a facial mask and a highly sensitive pressure recorder.
Ten to fifteen minutes after induction of anaesthesia, the animals received first an intraperitoneal injection of the COMPOUND, and a control recording was taken to define the mean amplitude of the integrated EMGs. Then, the animal received an intraperitoneal injection of L-Tryptophan plus Pargyline ("L-Trp+Parg") 10mg/kg and 50mg/kg, respectively, and the changes in EMG amplitudes were checked every 10 minutes and were expressed as % of control values.

[6] = tested on: newborn Sprague Dawley rats; test: Occurrence of obstructive apneas induced by L-Tryptophan and Pargyline injection
Procedure: Intraperitoneal application of L-Tryptophan (10mg/kg) and Pargyline (50mg/kg) to anaesthesized newborn rats depressed the amplitude of the inspiratory discharges of the genioglossal muscle and induced obstructive apneas (OA).
as §1, §2

Question: Which “subjects experienced mild to moderate sedation” value (healthy subjects [1]; single 10mg dose) does the source give for `COc1cccc([C@H](O)C2CCN(CCc3ccc(F)cc3)CC2)c1OC` [COMPOUND, R-(+)-α-(2,3-Dimethoxyphenyl)-1-[2-(4-fluorophenyl)ethyl]-4-piperidinemethanol] here?
Answer: 3 out of 5

Question: And the “subjects experienced mild to moderate sedation” value (healthy subjects [1]; single 20mg dose)?
Answer: 2 out of 5

Question: What about the “Insomnia, % of subjects” value ([2]; 10 mg (5mg twice daily)) of the same compound?
Answer: N=0; 0%

Question: What about the “Insomnia, N (number of subjects that reported the effect)” value (shortened to “Insomnia, N”) ([2]; 10 mg (5mg twice daily)) of the same compound?
Answer: N=0; 0%

Question: And the “Somnolence, % of subjects” value ([2]; 10 mg (5mg twice daily))?
Answer: 20%

Question: What about the “Somnolence, N (number of subjects that reported the effect)” value (“Somnolence, N” for short) ([2]; 10 mg (5mg twice daily)) of the same compound?
Answer: 3

Question: What about the “Insomnia, % of subjects” value ([2]; 20 mg (10mg twice daily)) of the same compound?
Answer: 21.4%

Question: What about the “Insomnia, N” value ([2]; 20 mg (10mg twice daily)) of the same compound?
Answer: 3

Question: What about the “Somnolence, % of subjects” value ([2]; 20 mg (10mg twice daily)) of the same compound?
Answer: 15.4%

Question: What about the “Somnolence, N” value ([2]; 20 mg (10mg twice daily)) of the same compound?
Answer: N=1;

Question: What about the “Insomnia, % of subjects” value ([2]; 40 mg (20mg twice daily)) of the same compound?
Answer: 23.1%

Question: What about the “Insomnia, N” value ([2]; 40 mg (20mg twice daily)) of the same compound?
Answer: 3

Question: What about the “Somnolence, % of subjects” value ([2]; 40 mg (20mg twice daily)) of the same compound?
Answer: 15.4%

Question: What about the “Somnolence, N” value ([2]; 40 mg (20mg twice daily)) of the same compound?
Answer: N=2;

Question: And the “Drowsiness, % of subjects” value (healthy subjects [3]; 9 mg orally)?
Answer: 50%

Question: What about the “Drowsiness, n subjects” value (healthy subjects [3]; 9 mg orally) of the same compound?
Answer: 2

Question: And the “Drowsiness, % of subjects” value (healthy subjects [3]; 18 mg orally)?
Answer: 100%

Question: And the “Drowsiness, n subjects” value (healthy subjects [3]; 18 mg orally)?
Answer: 4

Question: And the “Drowsiness, % of subjects” value (healthy subjects [3]; 36 mg orally)?
Answer: 100%

Question: And the “Drowsiness, n subjects” value (healthy subjects [3]; 36 mg orally)?
Answer: 4

Question: What about the drowsiness rating (healthy subjects [3]; 72 mg and above) of the same compound?
Answer: moderate to severe

Question: What about the “Drowsiness, % of subjects” value (healthy subjects [3]; 72 mg orally) of the same compound?
Answer: 75%

Question: And the “Drowsiness, n subjects” value (healthy subjects [3]; 72 mg orally)?
Answer: 3

Question: And the “Drowsiness, % of subjects” value (healthy subjects [3]; 108 mg orally)?
Answer: 100%

Question: What about the “Drowsiness, n subjects” value (healthy subjects [3]; 108 mg orally) of the same compound?
Answer: 4

Question: What about the “Drowsiness, % of subjects” value (healthy subjects [3]; 138 mg orally) of the same compound?
Answer: 100%

Question: And the “Drowsiness, n subjects” value (healthy subjects [3]; 138 mg orally)?
Answer: 4

Question: What about the drowsiness rating (healthy subjects [3]; doses below 72 mg) of the same compound?
Answer: mild or moderate

Question: And the “reported drowsiness, n subjects” value (healthy subjects [4])?
Answer: 3

Question: What about the “prevention of the depression of genioglossal (GG) discharge induced by L-Trp+Parg” value ([5]; pre-treatment 0.1 mg/kg intraperitoneal, ten animals) of the same compound?
Answer: did not prevent

Question: And the “prevention of the depression of genioglossal (GG) discharge induced by L-Trp+Parg” value ([5]; pre-treatment 1mg/kg intraperitoneal, ten newborn rats)?
Answer: efficient in preventing the GG depression

Question: And the “prevention of the depression of genioglossal (GG) discharge induced by L-Trp+Parg” value ([5]; pre-treatment 3mg/kg intraperitoneal, ten animals)?
Answer: confirmed the efficiency

Question: What about the “animals that died of respiratory distress” value ([6]; pre-treatment 0.1 mg/kg) of the same compound?
Answer: 4 of the 10

Question: What about the “newborn rats in which L-Trp+Parg injection induced OAs” value ([6]; pre-treatment 0.1 mg/kg) of the same compound?
Answer: 9 of 10

Question: And the “newborn rats that did not present short lasting OAs at all” value ([6]; pre-treatment 1mg/kg)?
Answer: Five out of ten

Question: And the “newborn rats which displayed OAs” value ([6]; pre-treatment 1mg/kg)?
Answer: 5 of 10

Question: And the “newborn rats with long lasting OAs” value ([6]; pre-treatment 1mg/kg)?
Answer: one

Question: And the “survival to L-Trp+Parg injection” value ([6]; pre-treatment 1mg/kg)?
Answer: all animals survived

Question: And the “animals with infrequent OAs (less than 5 short lasting OAs in 60 minutes)” value ([6]; pre-treatment 1mg/kg, among the 5 of 10 which displayed OAs)?
Answer: 2

Question: And the “peak frequency of occurrence of short lasting OAs” value ([6]; pre-treatment 1mg/kg, between 20-40 min after the injection, mean curve)?
Answer: 4 OAs per 10 minute period

Question: And the “animals that displayed long lasting OAs” value ([6]; pre-treatment 3mg/kg)?
Answer: None of the 10

Question: And the “rats with a total of less than 3 short lasting Oas” value ([6]; pre-treatment 3mg/kg)?
Answer: 3 of 10

Question: And the “rats with no short lasting Oas” value ([6]; pre-treatment 3mg/kg)?
Answer: 5 of 10

Question: What about the survival ([6]; pre-treatment 3mg/kg) of the same compound?
Answer: all survived

Question: What about the “treated rats with frequent short lasting Oas” value ([6]; pre-treatment 3mg/kg) of the same compound?
Answer: 2 of 10

Question: `Cn1c(=O)c2[nH]cnc2n(C)c1=O` [theophylline, reference compound] was tested. Which “prevention of depression of the amplitude of GG inspiratory discharges by L-Trp+Prg” value ([5]; 10mg/kg, five newborn rats) did it give?
Answer: not prevented

Question: What about the “prevention of depression of the amplitude of GG inspiratory discharges by L-Trp+Prg” value ([5]; 30mg/kg, 5 animals) of the same compound?
Answer: not prevented

Question: What about the “prevention of induction of OAs after L-Trp+Prg injection” value ([6]; 10 mg/kg) of the same compound?
Answer: not prevented

Question: What about the “prevention of induction of OAs after L-Trp+Prg injection” value ([6]; 30 mg/kg) of the same compound?
Answer: not prevented
